Source: US20030100508A1, “Carbohydrate epitope mimic compounds and uses thereof” (priority 1999, published 2003)

Tests used:
L2-412 antibody [1] = assay: Phage ELISA: binding of phage clones to coated L2-412 antibody; design: species or system rat; details: 100 μl culture supernatant; antibody 1 μg/ml coating
Protocol: (§1) Comparative binding of the HNK-1 selected phage/positive clones versus the L2-412 selected 15-15 phage to bound L2-412 antibody, IgG, HNK-1, and IgM is shown FIG. 14. Supernatant (100 μl) from an overnight culture of bacteria secreting phade were incubated with coated antibodies (100 μl of 1 μg/ml useded for coating) and detected with HRP-coupled anti-phage antibody.
Individual colonies resistant to tetracycline and kanamycin were grown in LB containing 20 μg/mil tetracycline in 96-wells plates (Nunc) overnight at 37° C. (300 μl/well), then centrifuged 10 minutes at 3000 rpm in Jouan centrifuge and the supernatant (100 μl) was incubated for 2 hr in another 96-well plate previously coated with mAbL2-412 (100 μl, μg/l ml overnight at 4° C.) and blocked by incubation for 2 hours with PBS-0.5% (w/v) BSA. After washing 5 times, the binding of the phages was detected by incubation with HRP-conjugated anti-M13 antibody (Pharmacia, Biotech.) for 1 hour at a dilution of 1:2000. […] The absorbance of the colored reaction product was determined at 405 nm in a Multiscan TitertekPlus (Flow, Switzerland). […]

HNK-1 antibody = assay: Phage ELISA: binding of phage clones to coated HNK-1 antibody; design: species or system mouse; details: 100 μl culture supernatant; antibody 1 μg/ml coating
Protocol: as §1
Individual colonies resistant to tetracycline and kanamycin were grown in LB containing 20 μg/mil tetracycline in 96-wells plates (Nunc) overnight at 37° C. (300 μl/well), then centrifuged 10 minutes at 3000 rpm in Jouan centrifuge and the supernatant (100 μl) was incubated for 2 hr in another 96-well plate previously coated with mAbL2-412 (100 μl, μg/l ml overnight at 4° C.) and blocked by incubation for 2 hours with PBS-0.5% (w/v) BSA. After washing 5 times, the binding of the phages was detected by incubation with HRP-conjugated anti-M13 antibody (Pharmacia, Biotech.) for 1 hour at a dilution of 1:2000. The peroxidase reaction was started by the addition of 100 μl developer containing 0.01% hydrogen peroxide and 0.1% (w/v) 2,2′-azino-bis(3-ethylbenzthiazoline-6-sulfonic acid)-diammonium salt (ABTS, Boehringer Mannheim) in HRP buffer (0.1M sodium acetate, 0.05M NaH2PO4, pH adjusted to 4.2 with acetic acid). The absorbance of the colored reaction product was determined at 405 nm in a Multiscan TitertekPlus (Flow, Switzerland). […] Two individual colonies were picked and re-assayed for positivity towards mAb L2-412. Positive single colonies were stored in 40% glycerol at −80° C.

L2-412 antibody [2] = assay: Competition ELISA: binding of mAb L2-412 to immobilized L2/HNK-1 glycolipids; design: species or system rat
Protocol: FIG. 2A depicts competition of the L2-412 antibody to immobilized L2/HNK-1 glycolipids by various inhibitors: positive phage (denoted phage 15-15), negative phage (denoted neg. control phage), free peptide (denoted peptide 15-15) and SO3-sugar. L2-412 was preincubated with a stepwise 2-fold dilution series of the free peptide (starting concentration 2.2 mM), SO3-sugar (starting concentration 5 mM), positive phage and negative phage (starting concentration 10^12TUs/ml), and added to the coated glycolipid. After incubation and washing, the bound antibody was detected with HRP anti-rat antibody.
FIG. 2B depicts the percentage inhibition of L2-412 antibody to immobilized L2/HNK-1 glycolipids by various inhibitors. The percentage is calculated for the point in FIG. 2A with the highest concentration of inhibitor. […]
Microtiter plates (Nunc) were coated with the L2/HNK-1 glycolipids (50 μl, 1 μg/ml, dissolved in EtOH) and allowed to dry overnight. While blocking the wells for 2 hours with 0.5% (w/v) fatty-acid-free BSA in PBS, a limiting concentration of ^L2-412, previously determined, was pre-incubated with successive 2-fold dilutions of the inhibitor, starting at a concentration of 2.2 mM for the free peptide, 5 mM for the SO3 sugar and 10^12 positive and negative phages (the negative phages were cloned from the unbound fraction of the first round of screening). […]

laminin = target: T1, laminin (Mus musculus, UniProt P19137); assay: Binding of phage to immobilized laminin; details: laminin 10 μg/ml coating; anti-M13 HRP detection
T1 construct: purchased Gibco/BRL
Protocol: FIG. 5 depicts binding of phage 15-15 and control phage UBR2 to immobilized laminin (100 μl of 10 μg/ml used for coating). Bound phage were detected by HRP-conjugated anti-M13 antibody. The results are presented as OD405 vs. relative concentration of the phage preparation (a relative concentration of 100 corresponds to […] phage).

[3] = system: oligodendrocytes in mixed cerebellar cultures; assay: Oligodendrocyte cultures treated with HIV gp120 and HNK-1 epitope mimic peptide, RIP immunostaining; type: cell-based, rat
Protocol: For these experiments, mixed neural cultures were isolated from rat cerebellum. Briefly, tissue was harvested from postnatal day five rat pups, dissociated and plated on poly-lysine coated 24 well cluster plates in Neural basal medium plus B27 supplement, 1% FBS and penicillin and streptomycin. HNK-1 epitope mimic peptide 8 mer (FLHTRLFV) (SEQ ID NO:8) (1 mM, 100 nM or 10 nM) was added to wells at the time of plating. Three days later, 1 nM gp120 was preincubated with 1 mM, 100 nM or 10 nM HNK-1 peptidomimetic for 1 hour at 37° C. After one hour, gp120 or gp120 plus HNK-1 peptidomimetic was added to mixed cerebellar cultures in sets of 6 replicates. Four days later, cultures were fixed and immunostained with the oligodendrocyte specific antibody marker, RIP. Data was analyzed by counting the number of RIP positive cells in twenty 20×-microscope fields. In addition, the number of RIP positive cells, mature oligodendrocytes with extensive intact membrane sheaths were counted. The cells are depicted in FIG. 20.

[4] = system: Ox42 (MAC 1), TNF and GFAP expression; assay: gp120-mediated inflammation and neuropathy, sciatic nerve Oxycel delivery, spinal cord immunohistochemistry; type: in vivo, rat
Text: Herzberg et al coated the sciatic nerve of rats with oxidized cellulose saturated with gp120 or BSA as control. Persistant hyperalgesia and allodynia were observed throughout a one month testing period in rats treated with gp120. […] This system was utilized to assess the affect of the 8-mer peptide on gp120-mediated inflammation and neuropathy, using Ox42 (MAC 1), TNF and GFAP expression as immunohistochemical markers.
Ox42 (also called MACl) is a general marker for immune/inflammatory activation of the central nervous system (expressed by microglia—when those proliferate and/or extend their processes). If Ox42 marker is present two weeks, and particularly four weeks, after initial neural injury, this indicates a chronic problem. An ongoing inflammatory process in the CNS is correlative of neuropathy. TNF is a cytokine indicating an inflammatory process, and in this case neuronal degeneration. It's expression increases in the CSF of pateints with HIV related neuropathy and is thought to play a role in the degenerative process in these patients (see “role of immune activation and cytokine expression in HIV-1 associated neurologic disease” bay Masaru Yoshioka Walter G Bradley, Paul Shapshak, Isao Nagano, Rene V. Stewart, Ke-Qin Xin, Ashok Srivastava, and Shozo Nakamura in Advance in Neuroimmunology) Vol.5 pp 335-358, 1995. GFAP is a marker for a general activation of astrocytes in the spinal cord and is expressed following damage to the CNS.
Male Sprague Dawley rats weighing 200-225 g were used.
The left sciatic nerve was isolated by blunt dissection, and wrapped with oxidized cellulose (Oxycel, Becton Dickinson) saturated with 250 ul sterile saline containing 400 ng of recombinant gp120 protein alone, or in the presence of 43 ng of the 8-mer L2/HNK-1 mimic peptide (corresponding to a 10×excess […] on a mole-per-mole basis), utilizing the Oxycel delivery method of Eliav et al (Eliav et al (1999) Pain 83(2): 169-82. Eight animals were treated with gp120 alone and eight animals were treated with gp120 and 43 ng peptidomimetic compound.
Animals were euthanized (overdose of xylazine/ketamine) at two and four weeks following surgery and perfused transcardially with ice cold saline followed by 4% paraformaldehyde.
Spinal cords were harvested and cryoprotected overnight at 30% sucrose solution 10 Sections of 40 um thickness from the lumbar enlargement from each animal were thaw mounted onto gelatized slides and stained immunohistochemically for Ox-42 (MACl), TNF and GFAP.

[5] = system: oligodendrocytes in mixed cerebellar cultures; assay: Oligodendrocyte cultures treated with HIV gp120 and HNK-1 epitope mimic peptide, RIP immunostaining; type: cell-based, rat; remark: listed apart in the source
[6] = system: embryonic neural cell cultures; assay: Embryonic neural cell cultures treated with L1 and chemotherapeutic agents; type: cell-based; details: with cisplatin and vincristin; experiments not detailed
Text: Thus, in view of the recognized and previously described role of HNK-1 expressing cells, natural killer cells, in the surveillance of tumors and virus-infected cells, the carbohydrate epitope mimic peptides can be utilized in enhancing, activating or otherwise modulating the surveillance and clearance of tumors and virus-infected cells. The carbohydrate epitope mimic peptides of the present invention may also have use in the protection of cells, particularly neural cells from chemotherapeutic agents. In experiments not specifically detailed in the Examples herein, the inventors treated embryonic neural cell cultures with a combination of the neural cell adhesion molecule L1 and chemotherapeutic agents, including cisplatin and vincristin. The cell cytopathic effects of the chemotherapeutic agents were reduced in te presence of L1. L1expresses the HNK-1 epitope and a good portion of L1 homophilic binding is HNK-1 mediated. Thus, it is contemplated that the L2/HNK-1 epitope mimic peptide of the present invention can be utilized in the protection of cells, particularly neural cells from chemotherapeutic agents. Untoward cellular cytotoxic effects and problematic symptoms associated therewith are a recognized and limiting side effect of chemotherapy, inherently limiting the dose of the agents which can be administered.

[7] = target: monoclonal antibody L2-412; assay: competition ELISA: L2-412 preincubated with inhibitor (2-fold dilutions from 2.2 mM), then binding to immobilized L2/HNK-1 glycolipid
[8] = gp120 (1 nM) + 10 nM peptide, preincubated
[9] = gp120 (1 nM) + 100 nM peptide, preincubated
[10] = gp120 (1 nM) + 1 uM peptide, preincubated
[11] = gp120 400 ng + 43 ng 8-mer peptide on sciatic nerve, lumbar spinal cord

## T R L F R V P V F R L G D F W (TRLFRVPVFRLGDFW) [Peptide 15H92]
L2-412 antibody [1]
  binding of phage to coated L2-412 antibody: bind L2-412 and HNK-1, nearly to the same extent
HNK-1 antibody
  binding of phage to coated HNK-1 antibody: bind L2-412 and HNK-1, nearly to the same extent

## S L A P Y S L R I F V L F G G A (SLAPYSLRIFVLFGGA) [Peptide 15H233]
L2-412 antibody [1]
  binding of phage to coated L2-412 antibody: bind L2-412 and HNK-1, nearly to the same extent
HNK-1 antibody
  binding of phage to coated HNK-1 antibody: bind L2-412 and HNK-1, nearly to the same extent

## F L H T R L F V S D W Y H T (FLHTRLFVSDWYHT; m13 library) [Peptide 15-15]
L2-412 antibody [2]; highest inhibitor concentration (free peptide 2.2 mM, SO3-sugar 5 mM, phage 10^12 TUs/ml), no inhibitor = 0%
  inhibition of L2-412 binding to immobilized L2/HNK-1 glycolipids: 30-35%

## F L H T R L F V S D W Y H T P [phage 15-15]
laminin
  binding of phage to immobilized laminin: bind to laminin in a concentration dependent manner
HNK-1 antibody
  binding of phage to coated HNK-1 antibody: does not bind HNK-1 antibody to a significant extent

## S G R G F C C W S N D S A L S [negative phage, reference compound]
L2-412 antibody [2]; phage starting at 10^12
  inhibitory effect on L2-412 binding to immobilized L2-glycolipids: did not show this inhibitory effect

## F L H T R L F V (FLHTRLFV; m13 library) [Consensus peptide]
[3]; 10 nM HNK-1 epitope mimic peptide
  fluorescence microscopy of RIP positive oligodendrocytes: Numerous mature RIP positive oligodendrocytes with extensive membrane sheaths were observed
[3]; 100 nM peptide
  # mature RIP + cells/20 fields: 16.33 cells/20 fields
  Total # RIP + cells/20 fields: 76.67 cells/20 fields
[3]; [8]
  # mature RIP + cells/20 fields: 8.833 cells/20 fields
[3]; [9]
  # mature RIP + cells/20 fields: 11.17 cells/20 fields
  Total # RIP + cells/20 fields: 69.83 cells/20 fields
[3]; [10]
  # mature RIP + cells/20 fields: 12.33 cells/20 fields
[3]; summary of Table 6
  effect on mature oligodendrocytes and gp120-associated myelin destruction: increases the number of mature oligodendrocytes and blocks myelin destruction associated with gp 120 treatment
[4]; [11]
  GFAP immunoreactive area: 8745 pixels
  Ox42 immunoreactive area: 1557 pixels
  TNF immunoreactive area: 1478 pixels
[4]; gp120 + peptide versus Oxycel alone
  effect on gp120-induced immunoreactivity: brings those values back to the same level as with Oxycel alone
[4]; gp120 in combination with the HNK-1 peptide
  cellular morphology of spinal cord sections, light microscopy: This cellular morphology was not observed
[5]; 1 nM gp120 preincubated with 1 uM HNK-1 epitope mimic peptide
  fluorescence microscopy of RIP positive oligodendrocytes: indistinguishable from mature RIP positive cells observed in cultures treated with the HNK-1 epitope mimic peptide only
[5]; 1 uM peptide
  # mature RIP + cells/20 fields: 13.33 cells/20 fields
  Total # RIP + cells/20 fields: 62.67 cells/20 fields
[5]; 10 uM peptide
  # mature RIP + cells/20 fields: 22.33 cells/20 fields
  Total # RIP + cells/20 fields: 75.83 cells/20 fields
[5]; [8]
  Total # RIP + cells/20 fields: 73.83 cells/20 fields
[5]; [10]
  Total # RIP + cells/20 fields: 76.83 cells/20 fields

## L1: neural cell adhesion molecule L1 [Peptide L1]
[6]
  cell cytopathic effects of chemotherapeutic agents: reduced

## FLHTRLFVSDWYHT [peptide 15-15 (free synthetic peptide …)]
[7]
  percent inhibition: 30 to 35%
